{"source": "patent US20060079540A1", "about": "“Pde4 and pde3/4 inhibitors for use in the treatment of cachexia” (Altana Pharma AG, priority 2002, published 2006)", "format_in_all_cases": "cell-based, human", "key": {"[1]": {"test_system": "secretion of TNFα from LXFE 397 epidermoid adenocarcinoma Xenograft explants", "assay": "TNFα secretion from LXFE 397 epidermoid adenocarcinoma xenograft explants (ELISA)", "details": "for TNFα content of the supernatants: 24 hours", "experimental": "FIG. 4: Effects of Zardaverine (left graph) and Piclamilast (right graph) on the secretion of TNFα from LXFE 397 epidermoid adenocarcinoma Xenograft explants. Tumor fragments from mice carrying LXFE 397 xenografts were excised and cell suspensions were seeded into 24 Well plates. After seeding of the cells, Zardaverine at concentrations of 30, 10, and 3 μM, respectively, and Piclamilast at concentrations of 0.3; 0.1; and 0.03 μM, respectively were added and supernatants were harvested 24 hours later. TNFα content of the supernatants was quantitated using R&D Quantikine ELISA kits according to the manufacturers recommendations.\n(§1) To this end primary cultures of tumor cells were derived from cachexia inducing human xenografts grown subcutaneously in nude mice.\n(§2) 5 to 10 NMRI nude mice were implanted with tumor fragments derived from the above mentioned Xenografts and grown until the tumors reached approximately 0.5 g, which correlated well with the onset of cachexia. Animals were then sacrificed and tumors were excised. Cells were subsequently isolated under sterile conditions by the use of mechanic disintegrators, proteases, hyaluronidase, and DNAse I. The crude suspension was passed twice through sterile sieves with diameters of 200 and 50 μM, respectively.\n(§3) Washed cell pellets were resuspended in Iscove's modified Dulbecco's Medium +20% FCS (fetal calf serum) and 0.24 to 1×10^6 tumor cells were seeded in 24 well plates. The cell isolates not only contained tumor cells, but also blood cells and stromal elements of murine origin. The cell lines RXF 486L was directly utilized and 1×10^6 cells were seeded into each well.\n(§4) Piclamilast and Zardaverine were dissolved in 100% DMSO (dimethyl sulfoxide) and applied at a final concentration of 1 μM to 0.001 μM (Piclamilast) or 100 μM to 0.1 μM (Zardaverine). Drugs and cells were plated at the same time. 24 hours after seeding supernatants were collected, centrifuged, and stored at −80° C.\n(§5) For the quantitative measurement of IL-1, IL-6, and TNFα, respectively, the supernatants were analyzed using Quantikine ELISA Kits from R&D Systems according to the manufacturer's recommendations."}, "[2]": {"test_system": "secretion of IL-1 from LXFA 526 lung adenocarcinoma Xenograft explants", "assay": "IL-1 secretion from LXFA 526 lung adenocarcinoma xenograft explants (ELISA)", "details": "for IL-1 content of the supernatants: 24 hours, DMSO control 85.3 pg/ml", "experimental": "(§6) FIG. 1: Effects of Zardaverine (left graph) and Piclamilast (right graph) on the secretion of IL-1 from LXFA 526 lung adenocarcinoma Xenograft explants. Tumor fragments from mice carrying LXFA 526 xenografts were excised and cell suspensions were seeded into 24 Well plates. After seeding of the cells, Zardaverine at concentrations of 100, 3, and 0.1 μM, respectively, and Piclamilast at concentrations of 1, 0.3 and 0.001 μM, respectively were added and supernatants were harvested 24 hours later. IL-1 content of the supernatants was quantitated using R&D Quantikine ELISA kits according to the manufacturer's recommendations.\nas §1, §2, §3, §4, §5"}, "[3]": {"test_system": "secretion of TNFα from LXFA 526 lung adenocarcinoma Xenograft explants", "assay": "TNFα secretion from LXFA 526 lung adenocarcinoma xenograft explants (ELISA)", "details": "for TNFα content of the supernatants: 24 hours, DMSO control 16.8 pg/ml", "experimental": "as §6, with “3:” for “1:”, “TNFα” for “IL-1”\nas §1, §2, §3, §4, §5"}, "[4]": {"test_system": "secretion of IL-1 from RXF 393 hypernephroma Xenograft explants", "assay": "IL-1 secretion from RXF 393 hypernephroma xenograft explants (ELISA)", "details": "for IL-1 content of the supernatants: 24 hours, DMSO control 46.9 pg/ml", "experimental": "as §6, with “2:” for “1:”, “RXF 393 hypernephroma” for “LXFA 526 lung adenocarcinoma”, “RXF 393” for “LXFA 526”, “100” for “100, 3,”, “0.01” for “0.3”\nas §1, §2, §3, §4, §5"}}}
{"smiles": "COc1cc(-c2ccc(=O)[nH]n2)ccc1OC(F)F", "note": "[Zardaverine]", "values": [{"measurement": "TNFα content of the supernatants", "setting": "[1]; 3 μM, DMSO control 30.3 pg/ml", "result": 27.7, "unit": "pg/mL"}, {"measurement": "TNFα content of the supernatants", "setting": "[1]; 10 μM, DMSO control 30.3 pg/ml", "result": 28.2, "unit": "pg/mL"}, {"measurement": "TNFα content of the supernatants", "setting": "[1]; 30 μM, DMSO control 30.3 pg/ml", "result": 20.1, "unit": "pg/mL"}, {"measurement": "IL-1 content of the supernatants", "setting": "[2]; 0.1 μM", "result": 77.1, "unit": "pg/mL"}, {"measurement": "IL-1 content of the supernatants", "setting": "[2]; 3 μM", "result": 67.9, "unit": "pg/mL"}, {"measurement": "IL-1 content of the supernatants", "setting": "[2]; 100 μM", "result": 64.5, "unit": "pg/mL"}, {"measurement": "TNFα content of the supernatants", "setting": "[3]; 0.1 μM", "result": 13.8, "unit": "pg/mL"}, {"measurement": "TNFα content of the supernatants", "setting": "[3]; 3 μM", "result": 12.9, "unit": "pg/mL"}, {"measurement": "TNFα content of the supernatants", "setting": "[3]; 100 μM", "result": 12.6, "unit": "pg/mL"}, {"measurement": "IL-1 content of the supernatants", "setting": "[4]; 0.1 μM", "result": 48.1, "unit": "pg/mL"}, {"measurement": "IL-1 content of the supernatants", "setting": "[4]; 100 μM", "result": 32.1, "unit": "pg/mL"}]}
{"smiles": "COc1ccc(C(=O)Nc2c(Cl)cncc2Cl)cc1OC1CCCC1", "note": "[Piclamilast]", "values": [{"measurement": "TNFα content of the supernatants", "setting": "[1]; 0.03 μM, DMSO control 21.5 pg/ml", "result": 14.1, "unit": "pg/mL"}, {"measurement": "TNFα content of the supernatants", "setting": "[1]; 0.1 μM, DMSO control 21.5 pg/ml", "result": 12.1, "unit": "pg/mL"}, {"measurement": "TNFα content of the supernatants", "setting": "[1]; 0.3 μM, DMSO control 21.5 pg/ml", "result": 10, "unit": "pg/mL"}, {"measurement": "modulation of TNFα levels (in words)", "setting": "[1]; LXFE 397 model", "result": "able to inhibit the secretion of TNFα"}, {"measurement": "IL-1 content of the supernatants", "setting": "[2]; 0.001 μM", "result": 81.9, "unit": "pg/mL"}, {"measurement": "IL-1 content of the supernatants", "setting": "[2]; 0.3 μM", "result": 64.4, "unit": "pg/mL"}, {"measurement": "IL-1 content of the supernatants", "setting": "[2]; 1 μM", "result": 68.9, "unit": "pg/mL"}, {"measurement": "Modulation of IL-1 expression (in words)", "setting": "[2]; LXFA 526", "result": "able to suppress IL-1 levels"}, {"measurement": "TNFα content of the supernatants", "setting": "[3]; 0.001 μM", "result": 17.2, "unit": "pg/mL"}, {"measurement": "TNFα content of the supernatants", "setting": "[3]; 0.3 μM", "result": 15.1, "unit": "pg/mL"}, {"measurement": "TNFα content of the supernatants", "setting": "[3]; 1 μM", "result": 13.9, "unit": "pg/mL"}, {"measurement": "modulation of TNFα levels (in words)", "setting": "[3]; LXFA 526 cells", "result": "able to inhibit the secretion of TNFα"}, {"measurement": "IL-1 content of the supernatants", "setting": "[4]; 0.001 μM", "result": 43.2, "unit": "pg/mL"}, {"measurement": "IL-1 content of the supernatants", "setting": "[4]; 0.01 μM", "result": 43.9, "unit": "pg/mL"}, {"measurement": "IL-1 content of the supernatants", "setting": "[4]; 1 μM", "result": 37.8, "unit": "pg/mL"}, {"measurement": "Modulation of IL-1 expression (in words)", "setting": "[4]; RXF 393", "result": "able to suppress IL-1 levels"}]}
